According to patent publication US20100168038A1, “USE OF COMPOUNDS IN COMBINATION WITH GAMMA-IRRADIATION FOR THE TREATMENT OF CANCER” (priority 2006, published 2010):
“And” between values parts separate entries of the source, which are not always exact repeats. Equal entries are not always repeated. Residues, ends and D or L forms follow the SMILES beside them.

Legend:
[1] = tested on: Lewis Lung Carcinoma (LLC) cells; assay: Tumor growth of Lewis Lung Carcinoma (LLC) in mice, compound with or without gamma-irradiation; type: in vivo, mouse; settings: for tumor volume / tumor volume, mean: LLC; for tumor volume: single mouse; for tumor volume, mean: group mean
From the text: (§1) Tumor Growth Experiments. Tumor cells were washed in PBS and resuspended in a volume of 200 micro-l per inoculate. The cells were then inoculated into the right flank at 10^6 per mouse and growth of the tumor was monitored by measurement two times per week. The initiation of anti-tumor treatment of the mice was to some extent individualized according to when tumor growth started in each mouse. The mice were irradiated with 4 Gy prior to tumor inoculation in order to inhibit anti-tumor immune responses. The tumor volume was calculated as the mean volume in mice with tumors growth, according to (a1×a2×a3)/2 (the numbers ai denote tumor diameter, width and depth). The time of first palpation varied between different mice, although the general pattern of growth was similar in virtually all of the mice. In most diagrams a log-scale is used to better visualize the therapeutic effects against small tumors, i.e. the presence of complete rejections. For inhibition of TPPII in vivo we made intraperitoneal injections with 13.8 mg per kg of body weight (14 micro-l of a 50 mM solution/mouse) of the Subtilisin inhibitor Z-Gly-Leu-Ala-OH (Z-GLA-OH, Bachem, Weil am Rhein, Germany) twice per week, diluted into 200 micro-l PBS. All gamma-irradiations were full body exposures.
Table 2 contains in vivo data, showing tumor volume in mm^3, in groups of 4 mice with LLC (Lewis Lung Carcinoma). Mice were sacrificed if the tumor volume exceeded 1000 mm^3. Some mice were administered with the compounds alone; others were additionally administered with irradiation. Mice were given the compounds, and in some cases also gamma irradition (400 Rad), at days 7, 10, 14, 18 and 21.

EL-4 lymphoma cells = assay: Tumor growth of EL-4 lymphoma in C57Bl/6 mice, compound with gamma-irradiation; type: in vivo, mouse; settings: for tumor volume: single mouse; for tumor volume, mean: group mean
From the text: as §1
Table 3 contains further in vivo data, showing tumor volume in mm^3, in groups of 7-8 mice, according to the EL-4 tumor model described above. 1.000.000 EL-4 lymphoma cells were inoculated subcutaneously at day 0. No palpable tumors were observed until day 22. At each treatment (twice weekly) mice with palpable tumors were given 400 Rads irradiation alone, or in combination with 14 micro-l 50 mM solution of Z-GLA-OH. Mice with no palpable tumors were not treated, i.e. in mice with rejected tumors, treatment was terminated and the mice were kept under observation.
All mice were 400 Rad (1 Gy=100 Rad) gamma-irradiated at day 0, a standard procedure to improve tumor acceptance. The compound was inoculated intraperitoneally, whereas tumors were always inoculated subcutaneously.

[2] = compound + gamma irradiation (400 Rad), day 10
[3] = compound + gamma irradiation (400 Rad), day 14
[4] = compound + gamma irradiation (400 Rad), day 18
[5] = compound + gamma irradiation (400 Rad), day 21
[6] = EL-4, irradiation + Z-GLA-OH, day 26
[7] = EL-4, irradiation + Z-GLA-OH, day 30
[8] = EL-4, irradiation + Z-GLA-OH, day 34
[9] = EL-4, irradiation + Z-GLA-OH, day 37
[10] = EL-4, irradiation + Z-GLA-OH, day 41
[11] = EL-4, irradiation + Z-GLA-OH, day 44
[12] = EL-4, irradiation + Z-GLA-OH, day 48
[13] = EL-4, irradiation + Z-GLA-OH, day 55
[14] = EL-4, irradiation + Z-GLA-OH, day 62
[15] = EL-4, irradiation + Z-GLA-OH, day 65
[16] = EL-4, irradiation + Z-GLA-OH, day 72
[17] = EL-4, irradiation + Z-GLA-OH, day 78

In the case of `CC(C)C[C@H](NC(=O)CNC(=O)OCc1ccccc1)C(=O)N[C@@H](C)C(=O)O` [Z-GLA-OH, Z-Gly-Leu-Ala-OH] (HELM PEPTIDE1{[O=C(OCc1ccccc1)[*:2]].G.L.A}$$$$V2.0), the tumor volume ([1]; compound + gamma irradiation (400 Rad) at days 7, 10, 14, 18, 21, day 7) is reported as 4.0 mm^3 and 6.0 mm^3 (2×) and 0.0 mm^3, the “tumor volume, mean” value ([1]; compound + gamma irradiation (400 Rad), day 7) is reported as 4.00 mm^3 and the “tumor volume, mean” value [1, 2] is reported as 64.00 mm^3. The tumor volume [1, 2] was 48.0 mm^3 and 128.0 mm^3 and 40.0 mm^3 (2×), the “tumor volume, mean” value [1, 3] was 84.00 mm^3 and the tumor volume [1, 3] was 72.0 mm^3 (2×) and 144.0 mm^3 and 48.0 mm^3. The “tumor volume, mean” value [1, 4] was 25.38 mm^3, the tumor volume [1, 4] was 32 mm^3 (2×) and 24 mm^3 and 13.5 mm^3 and the “tumor volume, mean” value [1, 5] was 7.00 mm^3. For the same compound, the tumor volume [1, 5] was 13.5 mm^3 (2×) and 0.5 mm^3 (2×), the “tumor volume, mean” value ([1]; compound alone, day 7) was 5.88 mm^3 and the tumor volume ([1]; compound alone, day 7 after tumor inoculation) was 4.0 mm^3 and 0.0 mm^3 and 6.0 mm^3 and 13.5 mm^3. The “tumor volume, mean” value ([1]; compound alone, day 10) was 150.25 mm^3, the tumor volume ([1]; compound alone, day 10) was 256.0 mm^3 and 192.0 mm^3 and 9.0 mm^3 and 144.0 mm^3 and the “tumor volume, mean” value ([1]; compound alone, day 14) was 748 mm^3. The tumor volume ([1]; compound alone, day 14) was 660.0 mm^3 and 864.0 mm^3 and 720.0 mm^3, the “tumor volume, mean” value ([1]; compound alone, day 18) was 1300.67 mm^3 and the tumor volume ([1]; compound alone, day 18) was 864 mm^3 and 1470 mm^3 and 1568 mm^3. For the same compound, the tumor volume ([1]; compound alone, day 21) was 2048.0 mm^3, the “effect on LLC tumors” value ([1]; Z-GLA-OH only, in the absence of gamma-irradiation) was “no effect” and the tumor response ([1]; established LLC tumors, gamma-irradiation 4 Gy doses + Z-GLA-OH injection) was “complete regression”. For the same compound, the “period of observation without re-growth of tumors after treatment was cancelled” value (EL-4 lymphoma cells; EL-4, after 4 Gy + Z-GLA-OH 13.8 mg/kg) was “over 3 months”, the tumor volume (EL-4 lymphoma cells; EL-4, irradiation 400 Rads + Z-GLA-OH 14 micro-l 50 mM i.p., day 22) was 6.00 mm^3 and 0.50 mm^3 (5×) and 4.00 mm^3 and the “tumor volume, mean” value (EL-4 lymphoma cells; EL-4, irradiation + Z-GLA-OH, day 22) was 2.06 mm^3. The “tumor volume, mean” value (EL-4 lymphoma cells; [6]) was 84.69 mm^3, the tumor volume (EL-4 lymphoma cells; [6]) was 108.00 mm^3 (3×) and 126.00 mm^3 and 75.00 mm^3 and 50.00 mm^3 and 40.00 mm^3 and 62.50 mm^3 and the “tumor volume, mean” value (EL-4 lymphoma cells; [7]) was 49.94 mm^3. The tumor volume (EL-4 lymphoma cells; [7]) was 108.00 mm^3 (2×) and 13.50 mm^3 and 18.00 mm^3 and 24.00 mm^3 and 32.00 mm^3 and 48.00 mm^3 (2×), the “tumor volume, mean” value (EL-4 lymphoma cells; [8]) was 20.75 mm^3 and the tumor volume (EL-4 lymphoma cells; [8]) was 10.00 mm^3 and 0.50 mm^3 and 62.50 mm^3 and 24.00 mm^3 (2×) and 13.50 mm^3 (2×) and 18.00 mm^3. For the same compound, the “tumor volume, mean” value (EL-4 lymphoma cells; [9]) was 12.69 mm^3, the tumor volume (EL-4 lymphoma cells; [9]) was 8.00 mm^3 and 18.00 mm^3 and 12.00 mm^3 and 6.00 mm^3 (2×) and 27.00 mm^3 and 24.00 mm^3 and 0.50 mm^3 and the “tumor volume, mean” value (EL-4 lymphoma cells; [10]) was 3.88 mm^3. The tumor volume (EL-4 lymphoma cells; [10]) was 0.50 mm^3 (3×) and 4.00 mm^3 (4×) and 13.50 mm^3, the “tumor volume, mean” value (EL-4 lymphoma cells; [11]) was 1.14 mm^3 and the tumor volume (EL-4 lymphoma cells; [11]) was 0.50 mm^3 (4×) and 0.10 mm^3 and 2.00 mm^3 and 1.00 mm^3 and 4.00 mm^3. For the same compound, the “tumor volume, mean” value (EL-4 lymphoma cells; [12]) was 0.18 mm^3, the tumor volume (EL-4 lymphoma cells; [12]) was 0.10 mm^3 (4×) and 0.50 mm^3 (2×) and 0.00 mm^3 (2×) and the “tumor volume, mean” value (EL-4 lymphoma cells; [13]) was 0.07 mm^3. The tumor volume (EL-4 lymphoma cells; [13]) was 0.00 mm^3 (6×) and 0.10 mm^3 and 0.50 mm^3, the “tumor volume, mean” value (EL-4 lymphoma cells; [14]) was 0.01 mm^3 and the tumor volume (EL-4 lymphoma cells; [14]) was 0.10 mm^3 and 0.00 mm^3 (7×). The “tumor volume, mean” value (EL-4 lymphoma cells; [15]) was 0.01 mm^3, the tumor volume (EL-4 lymphoma cells; [15]) was 0.00 mm^3 and the “tumor volume, mean” value (EL-4 lymphoma cells; [16]) was 0.01 mm^3. For the same compound, the tumor volume (EL-4 lymphoma cells; [16]) was 0.10 mm^3 and 0.00 mm^3 (7×), the “tumor volume, mean” value (EL-4 lymphoma cells; [17]) was 0.00 mm^3 and the tumor volume (EL-4 lymphoma cells; [17]) was 0.00 mm^3. For the same compound, the “tumor response, summary of Table 3” value (EL-4 lymphoma cells; EL-4, 400 Rads irradiation + 14 micro-l 50 mM Z-GLA-OH at each treatment (twice weekly)) was “complete rejection of established tumors”, the “mice with tumor regression (partial effects)” value (EL-4 lymphoma cells; EL-4, Z-GLA-OH 3.5 mg/kg and lower doses + 3 Gy gamma-irradiation doses) was 2 out of 4 and the “mice with complete tumor rejection” value (EL-4 lymphoma cells; EL-4, Z-GLA-OH 6.9 mg/kg + 3 Gy gamma-irradiation doses) was 3 out of 4. The “mice with complete rejection” value (EL-4 lymphoma cells; EL-4, gamma-irradiation doses of 1 Gy + Z-GLA-OH injection) was 1 out of 4, the “mice with complete rejection” value (EL-4 lymphoma cells; EL-4, gamma-irradiation doses of 2 Gy + Z-GLA-OH injection) was 2 out of 5 and the tumor response (EL-4 lymphoma cells; EL-4, gamma-irradiation doses of 3 Gy + Z-GLA-OH injection) was “complete regression”. The tumor response (EL-4 lymphoma cells; established EL-4 tumors, C57Bl/6 mice, 3-4 doses of 400 Rad (one dose/week) + Z-GLA-OH 13.8 mg/kg twice weekly, all mice tested) was “complete tumor regression”.
